# Assays:
# Assay in all cases: Apoptosis flow cytometry assay of HPLC fractions and synthesized compounds
# [1] = system: MV-4-11 cells; assay type: cell-based, human
# Procedure: Apoptosis flow cytometry assays were performed essentially as described in Example 3. In one series of experiments, cultures MV-4-11 cells were grown to an appropriate density and approximately 20,000 cells/100 μL were seeded into wells of 96-well cell culture microplate. For each fraction, either 0.5 μL/mL of a fraction or 1 μL/mL of a fraction was then added to transferred cells for each cell line and incubated for 24 hours at 37° C. in 5% CO2 incubator. […] Cells were then assessed for apoptosis by an apoptosis flow cytometry assay employing with a fluorochrome-conjugated Annexin V and/or the fluorescent nucleic acid dye 4,6-diamidino-2-phenylindole (DAPI) (APC Annexin V, BD Bioscience, CA) following protocols provided by the manufacture. […] Aliquots were then incubated in the dark for 15 minutes with either 1) an Annexin-V-APC conjugate and DAPI, 1) an Annexin-V-APC conjugate; or 3) DAPI. An unstained aliquot was also set up as a negative control to define the basal level of apoptotic and dead cells. The percentage of cells that have been induced to undergo apoptosis is then determined by subtracting the percentage of apoptotic cells in the unstained aliquot from percentage of apoptotic cells in the stained aliquot. After staining, cells were washed in ice-cold PBS and resuspended in 300 μL of the Annexin V buffered solution, and analysis by flow cytometry using an LSR II flow cytometer (BD Bioscience, CA). […] Mean cell numbers between the OST-01 treated and control group was statistically analyzed by using unpaired, two-tailed Student's t test, with values from at least two independent experiments with triplicate determination. […]
# Raw data obtained from these analyses were searched against a natural product databases, a flavonoid database, and other chemspider databases centered to plant natural products for putative identification. IN addition, based on the most abundant precursor ions detected in DI-MS, compounds were manually searched to assign putative identify of the abundant compounds. […]
# [2] = system: HL-60 cells; assay type: cell-based, human; settings: HL-60, highest amount tested (50 μM)
# [3] = system: THP-1 cells; assay type: cell-based; settings: THP-1, highest amount tested (200 μM), relative to ethanol or DMSO negative controls (FIG. 26B)
SMILES,"increase in DAPI positive cells ([1]; MV-4-11, up to 30 μM, relative to ethanol negative control, decline at higher concentrations (FIG. 28A)) [fold]",increase in DAPI positive cells ([2]; relative to ethanol negative control (FIG. 28B)),increase in Annexin V positive cells ([2]; relative to ethanol or DMSO negative controls (FIG. 27B)),"increase in Annexin V positive cells ([1]; MV-4-11, highest amount tested (50 μM), relative to ethanol negative control (FIG. 27A))","increase in Annexin V positive cells ([1]; MV-4-11, highest amount tested (200 μM), relative to ethanol or DMSO negative controls (FIG. 26A)) [%]",increase in Annexin V positive cells [3] [%]
O=C(O)CCCCCCCCCCCCCCCCCCCCO,≥ 8,over 4 fold,over 1.5 fold,–,–,–
O=C(O)/C=C/CCCCCCCCCCCCCCCCCCO [(2E)-21-Hydroxy-2-henicosenoic acid],–,–,–,over 2 fold,≥ 55,≥ 50

# Source: patent US11918553B2, “Anti-oncogenic phytochemicals comprising substituted henicosanoic acid and henicosenoic acid” (Ostentus Therapeutics, Inc., priority 2022, dated 2024)
